Earlier results on one compound are cited in patent US20250367263A9, “Therapeutic Regimens and Methods for Treatment of Cardiovascular Risk Factors using a GLP-1R and GCGR Agonist” (Spitfire Pharma LLC, priority 2022, published 2025).

In the case of `CCCCCCCCCCCCCCCC(=O)N[C@@H](CCC(=O)NCCCC[C@H](NC(=O)[C@H](CC(=O)O)NC(=O)[C@H](CO)NC(=O)[C@@H](NC(=O)[C@H](Cc1ccccc1)NC(=O)[C@@H](NC(=O)CNC(=O)[C@H](CCC(N)=O)NC(=O)[C@H](CO)NC(=O)[C@@H](N)Cc1c[nH]cn1)[C@@H](C)O)[C@@H](C)O)C(=O)N[C@@H](CO)C(=O)N[C@@H](CCC(=O)O)C(=O)N[C@@H](Cc1ccc(O)cc1)C(=O)N[C@@H](CC(C)C)C(=O)N[C@@H](CC(=O)O)C(=O)N[C@@H](CO)C(=O)N[C@@H](CCC(=O)O)C(=O)N[C@@H](CCCNC(=N)N)C(=O)N[C@@H](C)C(=O)N[C@@H](CCCNC(=N)N)C(=O)N[C@@H](CC(=O)O)C(=O)N[C@@H](Cc1ccccc1)C(=O)N[C@H](C(=O)N[C@@H](C)C(=O)N[C@@H](Cc1c[nH]c2ccccc12)C(=O)N[C@@H](CC(C)C)C(=O)N[C@@H](CCC(=O)O)C(=O)N[C@@H](C)C(=O)NCC(=O)NCC(=O)O)C(C)C)C(=O)O` [cotadutide], for the setting “6 weeks”, the “reduction in liver fat content” value is 39%. Moreover, the “NASH-related alanine aminotransferase (ALT) reduction, versus liraglutide alone” value (human, in vivo) is “greater improvement”.
